Tests used:
ICE = molecular target: T1, ICE (Homo sapiens, UniProt P29466); experiment: ICE inhibition constant (Ki); type: biochemical
T1 sequence (P29466 120-297 limits assumed): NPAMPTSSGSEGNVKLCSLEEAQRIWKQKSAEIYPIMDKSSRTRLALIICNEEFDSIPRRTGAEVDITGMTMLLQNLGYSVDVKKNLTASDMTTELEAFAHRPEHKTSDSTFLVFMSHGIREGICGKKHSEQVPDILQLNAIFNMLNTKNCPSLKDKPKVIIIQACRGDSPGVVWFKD
T1 sequence (P29466 317-404 limits assumed): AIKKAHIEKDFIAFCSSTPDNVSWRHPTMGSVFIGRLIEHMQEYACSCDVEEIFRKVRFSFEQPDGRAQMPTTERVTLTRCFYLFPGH

[1] = Absorption and conversion to Compound B upon oral administration; type: in vivo; conditions: converted into Compound B
IL-18 = experiment: Serum IL-18 levels (sandwich IL-18 ELISA) in healthy male subjects treated with oral Compound A for 14 days; type: in vivo, human; conditions: 900 mg q8 h oral
Protocol: Compound A was evaluated in a double-blind, randomized, placebo-controlled, oral dose, sequential group study in healthy male subjects. 9 subjects received 900 mg Compound A 14 days. 3 subjects received placebo treatment. Doses were administered three times a day at 8-hour intervals on Days 1 to 13 inclusive, and once in the morning of Day 14. All doses were administered in the fasted state.
Blood samples (1×3.5 mL) were taken by venepuncture or cannulation of a forearm vein(s).
Blood samples were collected into 3.5 mL SST Vacutainer® tubes (Becton Dickinson UK Ltd., Oxford) and, after mixing, stored at ambient temperature for at least 30 min prior to centrifugation. The samples were centrifuged, within 1 hour of collection, at 1500 g for 10 minutes at approximately 4° C. For each sample, the separated serum was transferred into two 5 mL suitably labelled polypropylene tubes (at least 0.6 mL in each tube), and stored within 2 hours of collection, at approximately −70° C. the laboratory for IL-18 assay.
IL-18 was assayed using a sandwich IL-18 ELISA technique (Human IL-18 ELISA Kit, Medical and Biological Laboratories, Nagoya, Japan). Standards, Controls and Samples were incubated in wells coated with an anti-human IL-18 monoclonal antibody. […] The developed color was then measured at an OD of 450 using a 630 nm reference filter.

absorption upon oral administration [1] | SMILES | Type of ICE inhibition (ICE) | inhibition of serum IL-18 concentrations (in words) (IL-18; 14-day treatment period) | inhibition at 900 mg (IL-18; Homo sapiens, 336 h, over 14 days of treatment, read-out: inhibition of serum IL-18 median levels)
– | CC(C)(C)[C@H](NC(=O)c1ccc(N)c(Cl)c1)C(=O)N1CCC[C@H]1C(=O)N[C@H](C=O)CC(=O)O [Compound B] | selective and reversible ICE inhibitor | – | –
rapidly absorbed | CCO[C@@H]1OC(=O)C[C@@H]1NC(=O)[C@@H]1CCCN1C(=O)[C@@H](NC(=O)c1ccc(N)c(Cl)c1)C(C)(C)C [Compound A] | – | gradual but marked inhibition | ~60%
